The values that follow come from patent publication US20230098995A1 (SYNGENTA CROP PROTECTION AG, priority 2020, published 2023).

In the assay the test system is Corynespora cassiicola. The assay is described as follows: Corynespora cassiicola liquid culture growth inhibition (microtiter plate, PDB). It counts as cell-based. As to conditions: photometric at 620 nm after 3-4 days at 24 C, compared to untreated control. As to the method: Conidia of the fungus from cryogenic storage were directly mixed into nutrient broth (PDB potato dextrose broth). A DMSO solution of the test compounds was placed into a microtiter plate (96-well format) and the nutrient broth containing the fungal spores was added to it. The test plates were incubated at 24 C and the inhibition of growth (% control of Corynespora cassiicola) was determined photometrically after 3-4 days at 620 nm. The activity of a compound is derived by comparing the inhibition of growth in the treated test solution to the growth in the untreated check. The concentration of the compounds was 6.7, 2.2, 0.74, 0.25, 0.082 and 0.027 ppm.

The term inhibition denotes the share of the control response that was lost under treatment. A lower inhibition goes with a response near the control. The compound `CC(C)CC(C)(Cc1ccccc1)NC(=O)c1cnc2c(F)cccc2c1` (centres unmarked) [Compound 2] displayed an inhibition at 6.7 ppm of at least 70%.

The compound `C=C(Cl)CC(C)(Cc1ccccc1)NC(=O)c1cnc2c(F)cccc2c1` (centres unmarked) [Compound 4] displayed an inhibition at 6.7 ppm of at least 70%. The figure for `CC(C)CC(C)(Cc1cccc(F)c1)NC(=O)c1cnc2c(F)cccc2c1` (centres unmarked) [Compound 6] is at least 70%. Next, `CC(C)C[C@](C)(Cc1ccccc1)NC(=O)c1cnc2c(F)cccc2c1` [Compound 9]: at least 70%; `C[C@](Cc1ccccc1)(CC(F)(F)F)NC(=O)c1cnc2c(F)cccc2c1` [Compound 11]: at least 70%; `C[C@@](Cc1ccccc1)(CC(F)(F)F)NC(=O)c1cnc2c(F)cccc2c1` [Compound 12]: at least 70%.

Compound `C=C(Cl)C[C@](C)(Cc1ccccc1)NC(=O)c1cnc2c(F)cccc2c1` [Compound 13] showed an inhibition at 6.7 ppm of at least 70%. With `CC(C)C[C@@](C)(Cc1ccccc1)NC(=O)c1cnc2c(F)c(F)ccc2c1` [Compound 16], the inhibition at 6.7 ppm is at least 70%.
